Experiments:
[1] = Selection of a solvent for the active component: solubility judged by naked eye; assay type: physicochemical
Procedure: First, […] of the active component (KRN7000) was weighed and stirred in 100 ml of a variety of solvents (Table 3) in a heated bath to 80°C for 20 minutes in order to form a solution having a concentration of 10 µg/ml. With respect to the solvents which were judged to have successfully dissolved 10 µg/ml of the active component, dissolution was further tried in the same manner as above in order to form a solution having a concentration of 100 µg/ml. With respect to the solvents which were judged to have successfully dissolved 100 µg/ml of the active component, dissolution was further tried in the same manner as above in order to form a solution having a concentration of 200 µg/ml. After cooling with running water, the solubility of the component was judged.
The solubility of the component was judged by the test described below. First, transparent colorless glass vials having a volume of 5 ml were charged with about 1.5 ml portion of each sample and sealed up. The vial was cleaned outside and placed beneath the white light source in a darkroom for observation with naked eye at the position of a luminous intensity of about 5,000 lux. When the sample was clear with no precipitates, it was judged that the active component was dissolved.

[2] = Optimal formulation: re-solubility after storage; assay type: physicochemical; details: lyophilized, KRN7000 200 µg/ml, Polysorbate 20 0.5%
Procedure: First, Polysorbate 20 was dissolved in distilled water in a concentration of 0.5%, and sucrose and histidine or sodium deoxycholate in such concentrations listed on Table 11. Next, 20 mg of the active component (KRN7000) was weighed and stirred in 100 ml of the solvents in a heated bath to 80°C for 20 minutes in order to form a solution. After cooling with running water, the mixture was filtered through a 0.22 µm filter, and transparent colorless glass vials having a volume of 5 ml were charged with a 1 ml portion of each of a variety of solutions thus obtained and subjected to lyophilization. Lyophilization was carried out under the condition of preliminary freezing at -40°C for 2 hours and drying at -20°C for 24 hours, 10°C for 12 hours, and finally at 25°C for 5 hours to give the lyophilized product. The degree of vacuum was set at 0.1 Torr or less during drying step.
After the lyophilization step, the lyophilized composition thus obtained was stored at 25°C or 50°C. After storage at 25°C for 2 months or at 50°C for 2 weeks, the lyophilized composition was reconstituted in 1 ml of distilled water for injection, left standing for 30 minutes, and solubility was judged when the foams generated on reconstitution disappeared. The samples judged to be solution after storage at 25°C for 2 months were further stored, and judged again of their solubility after storage for 4 months.
The solubility was judged by cleaning the outside of the vial and placing it beneath the white light source in a darkroom for observation with naked eye at the position of a luminous intensity of about 5,000 lux. When the sample was clear with no precipitates, it was judged that the active component was dissolved.

Judgment of solubility (by naked eye) ([1]; solvent 0.5% Cremophor, KRN7000 10 µg/ml): + (+ not dissolved (or deposited))
Judgment of solubility (by naked eye) ([1]; solvent 0.5% HCO 50, KRN7000 10 µg/ml): + (+ not dissolved (or deposited))
Judgment of solubility (by naked eye) ([1]; solvent 0.5% HCO 60, KRN7000 10 µg/ml): + (+ not dissolved (or deposited))
Judgment of solubility (by naked eye) ([1]; solvent 0.5% Polyoxamer 188, KRN7000 10 µg/ml): + (+ not dissolved (or deposited))
Judgment of solubility (by naked eye) ([1]; solvent 0.5% Polysorbate 20, KRN7000 10 µg/ml): - (- dissolved)
Judgment of solubility (by naked eye) ([1]; solvent 0.5% Polysorbate 20, KRN7000 100 µg/ml): - (- dissolved)
Judgment of solubility (by naked eye) ([1]; solvent 0.5% Polysorbate 20, KRN7000 200 µg/ml): - (- dissolved)
Judgment of solubility (by naked eye) ([1]; solvent 0.5% Polysorbate 80, KRN7000 10 µg/ml): - (- dissolved)
Judgment of solubility (by naked eye) ([1]; solvent 0.5% Polysorbate 80, KRN7000 100 µg/ml): + (+ not dissolved (or deposited))
Judgment of solubility (by naked eye) ([1]; solvent 1N HCl, KRN7000 10 µg/ml): + (+ not dissolved (or deposited))
Judgment of solubility (by naked eye) ([1]; solvent 1N NaOH, KRN7000 10 µg/ml): + (+ not dissolved (or deposited))
Judgment of solubility (by naked eye) ([1]; solvent Distilled water, KRN7000 10 µg/ml): + (+ not dissolved (or deposited))
Judgment of solubility (by naked eye) ([1]; solvent Ethanol, KRN7000 10 µg/ml): - (- dissolved)
Judgment of solubility (by naked eye) ([1]; solvent Ethanol, KRN7000 100 µg/ml): - (- dissolved)
Judgment of solubility (by naked eye) ([1]; solvent Ethanol, KRN7000 200 µg/ml): - (- dissolved)
Judgment of solubility (by naked eye) ([1]; solvent Glycerol, KRN7000 10 µg/ml): - (- dissolved)
Judgment of solubility (by naked eye) ([1]; solvent Glycerol, KRN7000 100 µg/ml): + (+ not dissolved (or deposited))
Judgment of solubility (by naked eye) ([1]; solvent Macrogol 400, KRN7000 10 µg/ml): - (- dissolved)
Judgment of solubility (by naked eye) ([1]; solvent Macrogol 400, KRN7000 100 µg/ml): + (+ not dissolved (or deposited))
Judgment of solubility (by naked eye) ([1]; solvent Propylene glycol, KRN7000 10 µg/ml): - (- dissolved)
Judgment of solubility (by naked eye) ([1]; solvent Propylene glycol, KRN7000 100 µg/ml): + (+ not dissolved (or deposited))
Re-solubility after storage (by naked eye) ([2]; Sucrose 1.1%, Histidine, 4%, 50°C, 2 weeks): + (+ not dissolved (or deposited))
Re-solubility after storage (by naked eye) ([2]; Sucrose 3.1%, Histidine, 3%, 50°C, 2 weeks): - (- dissolved)
Re-solubility after storage (by naked eye) ([2]; Sucrose 3.2%, Histidine, 2%, 50°C, 2 weeks): - (- dissolved)
Re-solubility after storage (by naked eye) ([2]; Sucrose 4.8%, Sodium deoxycholate, 0.2%, 25°C, 2 months): + (+ not dissolved (or deposited))
Re-solubility after storage (by naked eye) ([2]; Sucrose 4.8%, Sodium deoxycholate, 0.5%, 25°C, 2 months): - (- dissolved)
Re-solubility after storage (by naked eye) ([2]; Sucrose 4.8%, Sodium deoxycholate, 0.5%, 25°C, 4 months): - (- dissolved)
Re-solubility after storage (by naked eye) ([2]; Sucrose 4.8%, Sodium deoxycholate, 1%, 25°C, 2 months): - (- dissolved)
Re-solubility after storage (by naked eye) ([2]; Sucrose 4.8%, Sodium deoxycholate, 1%, 25°C, 4 months): - (- dissolved)
Re-solubility after storage (by naked eye) ([2]; Sucrose 4.8%, Sodium deoxycholate, 2%, 25°C, 2 months): - (- dissolved)
Re-solubility after storage (by naked eye) ([2]; Sucrose 4.8%, Sodium deoxycholate, 2%, 25°C, 4 months): - (- dissolved)
Re-solubility after storage (by naked eye) ([2]; Sucrose 5.0%, Histidine, 2%, 50°C, 2 weeks): - (- dissolved)
Re-solubility after storage (by naked eye) ([2]; Sucrose 5.1%, Histidine, 1%, 50°C, 2 weeks): - (- dissolved)
Re-solubility after storage (by naked eye) ([2]; Sucrose 6.9%, Histidine, 1%, 50°C, 2 weeks): - (- dissolved)
Re-solubility after storage (by naked eye) ([2]; Sucrose 7.9%, Histidine, 0.5%, 50°C, 2 weeks): + (+ not dissolved (or deposited))
Re-solubility after storage (by naked eye) ([2]; Sucrose 9.6%, Histidine, 2%, 50°C, 2 weeks): - (- dissolved)
Re-solubility after storage (by naked eye) ([2]; Sucrose 9.6%, Sodium deoxycholate, 0.2%, 25°C, 2 months): + (+ not dissolved (or deposited))
Re-solubility after storage (by naked eye) ([2]; Sucrose 9.6%, Sodium deoxycholate, 0.5%, 25°C, 2 months): - (- dissolved)
Re-solubility after storage (by naked eye) ([2]; Sucrose 9.6%, Sodium deoxycholate, 0.5%, 25°C, 4 months): - (- dissolved)
Re-solubility after storage (by naked eye) ([2]; Sucrose 9.6%, Sodium deoxycholate, 1%, 25°C, 2 months): - (- dissolved)
Re-solubility after storage (by naked eye) ([2]; Sucrose 9.6%, Sodium deoxycholate, 1%, 25°C, 4 months): - (- dissolved)
Re-solubility after storage (by naked eye) ([2]; Sucrose 9.6%, Sodium deoxycholate, 2%, 25°C, 2 months): - (- dissolved)
Re-solubility after storage (by naked eye) ([2]; Sucrose 9.6%, Sodium deoxycholate, 2%, 25°C, 4 months): - (- dissolved)
Re-solubility after storage (by naked eye) ([2]; Sucrose 19.2%, Sodium deoxycholate, 0.1%, 25°C, 2 months): + (+ not dissolved (or deposited))
Re-solubility after storage (by naked eye) ([2]; Sucrose 19.2%, Sodium deoxycholate, 0.2%, 25°C, 2 months): + (+ not dissolved (or deposited))
Re-solubility after storage (by naked eye) ([2]; Sucrose 19.2%, Sodium deoxycholate, 0.5%, 25°C, 2 months): + (+ not dissolved (or deposited))
Re-solubility after storage (by naked eye) ([2]; Sucrose 19.2%, Sodium deoxycholate, 1%, 25°C, 2 months): + (+ not dissolved (or deposited))
Re-solubility after storage (by naked eye) ([2]; Sucrose 19.2%, Sodium deoxycholate, 2%, 25°C, 2 months): + (+ not dissolved (or deposited))
SMILES: CCCCCCCCCCCCCCCCCCCCCCCCCC(=O)N[C@@H](CO[C@H]1O[C@H](CO)[C@H](O)[C@H](O)[C@H]1O)[C@H](O)[C@H](O)CCCCCCCCCCCCCC [KRN7000, (2S,3S,4R)-1-(α-D-galactopyranosyloxy)-2-hexacosanoylamino-3,4-octadecanediol]
